# Assay results published in article PMC11821258 (Molecules, 2025).
# Like-named read-outs stand apart in the source and are kept apart here.
# Tests used:
# Type in all cases: cell-based
# [1] = test system: human biphenotypic B myelomonocytic leukemia MV4-11; test: Antiproliferative activity, MTT assay, 72 h; settings: for IC50: Homo sapiens, MV4-11, 72 h; for SI: IC50 MCF-10A / IC50 MV4-11
# Description: (§1) The tested compounds were dissolved in DMSO (dimethyl sulfoxide) to a concentration of 10 mg/mL and then were diluted in the culture medium to reach the final concentrations. The cells were plated in 384-well plates at a density of 1 × 10^3 or 2 × 10^3 (MCF-10A) cells per well (Greiner Bio One, Kremsmünster, Austria) and in 96-well plates (MV4-11 cell; Sarstedt, Nümbrecht, Germany) at a density of 5 × 10^3 cells per well. After 24 h of incubation, the tested compounds were added at concentrations in the range of 100–0.03 µg/mL and, after the next 72 h of exposure to tested agents, the cytotoxic effect of all agents was examined using the MTT (MV4-11) or SRB assay, described previously. The values of IC50 (inhibitory concentration 50%) were calculated separately for each experiment (repeated 3–5 times) using the Prolab-3 system which is based on Cheburator 0.4 software. Doxorubicin was applied as a reference drug. The IC50 values in µg/mL were calculated to µM.
# This assay was used against MV4-11 leukemia cells and was performed after 72 h of exposure of the tested agents to the cells. For each well, 20 µL of the MTT [3-(4,5-dimethylthiazol-2-yl)-2,5-diphenyl tetrazolium bromide] solution (5 mg/mL, Merck, Darmstadt, Germany) was added. After the incubation time (4 h at 37 °C), 80 µL of the lysing buffer was added to each well (mixture of 225 mL of DMF (dimethylformamide) Avantor, Poland; 67.5 g of SDS, Merck, Darmstadt, Germany; and 275 mL of distilled water). After the next 24 h, the absorbance of the samples was measured at a 570 nm wavelength on a Synergy H4 photometer (BioTek Instruments, Winooski, VT, USA). The absorbance of wells without the cells was the background.
# [2] = test system: human melanoma Hs294T cells; test: Antiproliferative activity, SRB assay, 72 h; settings: for IC50: 72 h; for SI: IC50 MCF-10A / IC50 Hs249T (so in the source)
# Description: as §1
# (§2) The cytotoxicity assay was performed after the cultured cells were exposed to the tested agents for 72 h using the authomatic Washer dyspenser EL406, BioTek. At the first step, the washer dispenser collected 40 µL of cultured medium from each wells, and then the cells were fixed by gently layering 20 µL per well of cold 25% trichloroacetic acid to each well. The incubation time was 40 min and then the plates were washed with tap water. The cells were stained with 20 µL per well of 0.1% sulforhodamine B (SRB, Merck, Darmstadt, Germany) for 30 min. Unbound sulforhodamine B was removed by washing it with 1% acetic acid. The protein-bound dye was extracted in 30 min using 70 µL per well of 10 mM unbuffered Tris base (Merck, Darmstadt, Germany). The absorbance (at 540 nm) was measured on a Synergy H4 photometer (BioTek Instruments, Winooski, VT, USA). The absorbance of the wells without the cells was the background.
# [3] = test system: human breast cancer MCF-7; test: Antiproliferative activity, SRB assay, 72 h; settings: for IC50: Homo sapiens; for SI: IC50 MCF-10A / IC50 MCF-7
# Description: as §1, §2
# [4] = test system: human lung carcinoma A549; test: Antiproliferative activity, SRB assay, 72 h; settings: for IC50: A549, 72 h; for SI: IC50 MCF-10A / IC50 A549
# Description: as §1, §2
# [5] = test system: human pancreas cancer MiaPaca-2 cells; test: Antiproliferative activity, SRB assay, 72 h; settings: for SI: IC50 MCF-10A / IC50 MiaPaca-1 (so in the source)
# Description: as §1, §2
# [6] = test system: human colon cancer HCT116 cells; test: Antiproliferative activity, SRB assay, 72 h; settings: for SI: IC50 MCF-10A / IC50 HCT116
# Description: as §1, §2
# [7] = test system: human prostate adenocarcinoma PC-3; test: Antiproliferative activity, SRB assay, 72 h; settings: for IC50: Homo sapiens; for SI: IC50 MCF-10A / IC50 PC-3
# Description: as §1, §2
# [8] = test system: human normal epithelial cells from the mammary gland (MCF-10A); test: Cytotoxicity on non-tumorigenic cells, SRB assay, 72 h
# Description: as §1, §2
# [9] = Homo sapiens, Hs 294T, Hs249T (so in the source), SRB, read-out: IC50
# [10] = MCF7, MCF-7, 72 h, SRB, read-out: IC50
# [11] = Homo sapiens, SRB, read-out: IC50
# [12] = Homo sapiens, MIA PaCa-2, MiaPaca-1 (so in the source), 72 h, SRB, read-out: IC50
# [13] = Homo sapiens, HCT-116, HCT116, 72 h, SRB, read-out: IC50
# [14] = PC-3, 72 h, SRB, read-out: IC50
# [15] = Homo sapiens, MCF-10A normal cells, SRB, read-out: IC50
Compound,"IC50 ([1]; MTT, read-out: IC50) [µM]",SI [1],"IC50 [2, 9] [µM]",SI [2],"IC50 [3, 10] [µM]",SI [3],"IC50 [4, 11] [µM]",SI [4],"IC50 [5, 12] [µM]",SI [5],"IC50 [6, 13] [µM]",SI [6],"IC50 [7, 14] [µM]",SI [7],"IC50 [8, 15] [µM]",also measured
"C=C(C)[C@@H]1CC[C@]2(COC(C)=O)CC[C@]3(C)[C@H](CC[C@@H]4[C@@]5(C)CC[C@H](O)C(C)(C)[C@@H]5CC[C@]43C)[C@@H]12 [A, 28-O-acetylbetulin, reference compound]",41.1 ± 8.46,3.02,128 ± 14.2,0.97,72.4 ± 6.6,1.71,27.8 ± 10.5,4.45,127 ± 16.3,0.98,40.6 ± 13.6,3.05,80.7 ± 13.4,1.54,124 ± 33,–
C=C(C)[C@@H]1CC[C@]2(COC(C)=O)CC[C@]3(C)C(CCC4[C@@]5(C)CC[C@H](OC(=O)CC(C)(C)CC(=O)O)C(C)(C)C5CC[C@]43C)C12 (stereo partly shown) [Compound 1],2.9 ± 0.26,11.44,11.6 ± 1.12,2.85,7.02 ± 2.39,4.73,4.94 ± 0.48,6.71,23.6 ± 3.83,1.41,6.38 ± 2.87,5.20,14 ± 7.02,2.36,33.2 ± 1.91,–
"C=C(C)[C@@H]1CC[C@]2(COC(C)=O)CC[C@]3(C)C(CCC4[C@@]5(C)CC[C@H](OC(=O)CC(C)(C)C(=O)O)C(C)(C)C5CC[C@]43C)C12 (stereo partly shown) [Compound 2, 28-acetyl-3-(3′,3′-dimethylsuccinyl)betulin]",–,7.70,–,1.23,–,2.04,–,7.43,–,1.20,–,3.10,–,1.69,–,"IC50 [1]: 4.4 ± 1.63 µM; IC50 ([2]; Homo sapiens, Hs 294T): 27.6 ± 0.65 µM; IC50 ([3]; MCF7, 72 h): 16.6 ± 7.67 µM; IC50 ([4]; Homo sapiens): 4.57 ± 1.79 µM; IC50 ([5]; Homo sapiens, MIA PaCa-2, 72 h): 28.2 ± 4.4 µM; IC50 ([6]; Homo sapiens, HCT-116, 72 h): 10.9 ± 2.94 µM; IC50 ([7]; 72 h): 20.1 ± 2.12 µM; IC50 ([8]; Homo sapiens, MCF-10A): 33.9 ± 4.24 µM"
C=C(C)[C@@H]1CC[C@]2(COC(C)=O)CC[C@]3(C)C(CCC4[C@@]5(C)CC[C@H](OC(=O)CCC(=O)O)C(C)(C)C5CC[C@]43C)C12 (stereo partly shown) [Compound 3],–,8.82,–,1.53,–,1.94,–,6.53,–,0.97,–,2.55,–,1.50,–,"IC50 [1]: 3.93 ± 1.54 µM; IC50 ([2]; Homo sapiens, Hs 294T): 21.9 ± 4.27 µM; IC50 ([3]; MCF7, 72 h): 17.3 ± 6.33 µM; IC50 ([4]; Homo sapiens): 5.13 ± 0.85 µM; IC50 ([5]; Homo sapiens, MIA PaCa-2, 72 h): 34.5 ± 5.47 µM; IC50 ([6]; Homo sapiens, HCT-116, 72 h): 13.2 ± 1.02 µM; IC50 ([7]; 72 h): 22.4 ± 2.56 µM; IC50 ([8]; Homo sapiens, MCF-10A): 33.5 ± 1.88 µM"
C=C(C)[C@@H]1CC[C@]2(COC(=O)C#CC)CC[C@]3(C)C(CCC4[C@@]5(C)CC[C@H](OC(=O)CC(C)(C)CC(=O)O)C(C)(C)C5CC[C@]43C)C12 (stereo partly shown) [Compound 4c],3.23 ± 1.38,10.10,9.68 ± 1.54,3.37,16.6 ± 2.15,1.96,7.37 ± 2.3,4.42,22.7 ± 5.53,1.43,8.45 ± 2.15,3.85,10.1 ± 2.46,3.21,32.6 ± 2.15,–
C=C(C)[C@@H]1CC[C@]2(COC(=O)CC)CC[C@]3(C)C(CCC4[C@@]5(C)CC[C@H](OC(=O)CC(C)(C)CC(=O)O)C(C)(C)C5CC[C@]43C)C12 (stereo partly shown) [Compound 4d],5.15 ± 0.47,11.73,18.7 ± 9.67,3.23,20.6 ± 5.77,2.93,6.24 ± 1.25,9.68,34.2 ± 2.96,1.77,16.9 ± 5.61,3.58,21.7 ± 4.52,2.78,60.4 ± 15.9,–
C=C(C)[C@@H]1CC[C@]2(COC(=O)C#CC3CC3)CC[C@]3(C)C(CCC4[C@@]5(C)CC[C@H](OC(=O)CC(C)(C)CC(=O)O)C(C)(C)C5CC[C@]43C)C12 (stereo partly shown) [Compound 4e],3.16 ± 0.88,21.50,19.8 ± 5.61,3.40,25.7 ± 4.43,2.60,59.8 ± 22.2,1.14,67.1 ± 14.5,1.01,23.2 ± 5.91,2.93,15.2 ± 5.91,4.47,68 ± 34.9,–
C=C(C)[C@@H]1CC[C@]2(COC(=O)C#Cc3ccccc3)CC[C@]3(C)C(CCC4[C@@]5(C)CC[C@H](OC(=O)CC(C)(C)CC(=O)O)C(C)(C)C5CC[C@]43C)C12 (stereo partly shown) [Compound 4f],–,–,–,–,–,–,–,–,–,–,–,–,–,–,–,"IC50 [1]: 46.6 ± 11.8 µM; IC50 ([2]; Hs249T (so in the source), SRB): Neg; IC50 ([3]; MCF7, 72 h): 131 ± 8.83 µM; IC50 ([4]; SRB): does not show activity and Neg; IC50 ([5]; MiaPaca-1 (so in the source), 72 h, SRB): Neg; IC50 ([6]; HCT116, 72 h, SRB): does not show activity and Neg; IC50 ([7]; 72 h): 95.8 ± 27.1 µM; IC50 ([8]; MCF-10A normal cells, SRB): Neg"
C=C(C)[C@@H]1CC[C@]2(CO)CC[C@]3(C)C(CCC4[C@@]5(C)CC[C@H](OC(=O)CC(C)(C)C(=O)O)C(C)(C)C5CC[C@]43C)C12 (stereo partly shown) [Compound 5],7.81 ± 2.8,3.43,30.8 ± 1.4,0.87,29.2 ± 3.85,0.92,9.11 ± 0.87,2.94,30.7 ± 2.63,0.87,14.7 ± 4.55,1.82,27 ± 3.85,1.01,26.8 ± 2.1,–
C#CC(=O)OC[C@]12CC[C@@H](C(=C)C)C1C1CCC3[C@@]4(C)CC[C@H](OC(=O)CC(C)(C)C(=O)O)C(C)(C)C4CC[C@@]3(C)[C@]1(C)CC2 (stereo partly shown) [Compound 5a],0.6 ± 0.175,21.17,–,–,19.4 ± 3.1,0.65,10.7 ± 3,1.18,–,–,3.64 ± 0.6,3.49,0.85 ± 0.17,14.94,12.7 ± 0.5,–
C=C(C)[C@@H]1CC[C@]2(COC(=O)C#CC)CC[C@]3(C)C(CCC4[C@@]5(C)CC[C@H](OC(=O)CC(C)(C)C(=O)O)C(C)(C)C5CC[C@]43C)C12 (stereo partly shown) [Compound 5c],11 ± 1.1,2.91,23.2 ± 3.77,1.38,25 ± 4.87,1.28,6.59 ± 1.88,4.86,32 ± 6.12,1.00,9.26 ± 0.47,3.46,22.9 ± 4.71,1.40,32 ± 4.87,–
C=C(C)[C@@H]1CC[C@]2(COC(=O)CC)CC[C@]3(C)C(CCC4[C@@]5(C)CC[C@H](OC(=O)CC(C)(C)C(=O)O)C(C)(C)C5CC[C@]43C)C12 (stereo partly shown) [Compound 5d],2.5 ± 0.48,13.63,59.7 ± 38.6,0.57,21.1 ± 9.89,1.62,4.62 ± 1.59,7.38,29.2 ± 1.59,1.17,12.3 ± 4.15,2.78,16.6 ± 6.54,2.06,34.1 ± 4.94,–
